Laboratory results from patent US20100135905A1, “ASSESSMENT OF CANCER SUSCEPTIBILITY TO MOLECULAR TARGETED THERAPY BY USE OF RECOMBINANT PEPTIDES” (priority 2004, published 2010).
No end group written: not given here.

Legend:
[1] = target: T1, GP-IIb/IIIa receptors on activated platelets (Homo sapiens, UniProt P05106+P08514); assay: Clinical gamma camera/SPECT imaging of 99mTc-labeled bibapcitide in irradiated tumors; format: in vivo, patients
T1 construct: from tissue
Method: Ligand Preparation and Administration. Bibapcitide (ACUTECT™, available from Diatide, Inc. of Londonderry, N.H., United States of America) is a synthetic peptide that binds to GP-IIb/IIIa receptors on activated platelets (Hawiger et al., 1989; Hawiger & Timmons, 1992). Bibapcitide was labeled with ^99mTc in accordance with a protocol provided by Diatide Inc.
Reconstituted ^99mTc-labeled bibapcitide was administered to patients at a dose of 100 μg of bibapcitide radiolabeled with 10 mCi of ^99mTc. […] Patients underwent gamma camera imaging prior to irradiation and 24 hours following irradiation.
Following planar image acquisition, those patients showing uptake in irradiated tumors underwent tomographic imaging using SPECT and repeat imaging at 24 hours. Patients showing no uptake on planer images during this 24-hour time frame had no further imaging.
Patients were treated with X-irradiation ranging from 4 to 18 MV photon using external beam linear accelerator at Vanderbilt University. Appropriate blocks, wedges, and bolus to deliver adequate dose to the planned target volume was utilized. The site of irradiation, treatment intent, and normal tissue considerations determined the radiation dosage and volume. When stereotactic radiosurgery was used, the dose was prescribed to the tumor periphery.
Image Analysis. Image acquisition consisted of both planar and single photon emission computed tomography (SPECT) studies. Planar studies were performed on a dual-head gamma camera (Millennium VG-Variable Geometry model available from General Electric Medical Systems of Milwaukee, Wis., United States of America) equipped with low energy high-resolution (LEUR) collimators. This type of collimator represents a compromise between sensitivity (photon counting efficiency) and image resolution. Planar nuclear medicine images were acquired with a 256×256 acquisition matrix (pixel size approximately 0.178 cm/pixel) for 10 minutes. In order to maximize collimator-gamma camera system sensitivity the source-to-detector surface distance was minimized to the extent that patient geometry allows. The spatial distribution of […] within the planar image was measured using region-of-interest (ROI) analysis. Two different size ROIs (5×5 pixel, and 15×15 pixel) was used in both the tumor and surrounding organs and tissues in the patient. The rationale for using ROIs with different dimensions is to be able to quantify image counts while at the same time isolating any possible influence of ROI size on the results. Tumor-to-background ratios were computed as the ratio of average counts in the tumor region divided by average counts in surrounding organs and tissues, each corrected for background. Background counts was determined based on ROI analysis of a separate planar acquisition performed in the absence of a radioactive source.
Three-dimensional nuclear medicine SPECT examinations were performed using the same dual-head gamma camera system. Each SPECT study comprised a 360 scan acquired with a step-and-shoot approach utilizing the following acquisition parameters: three increments between views, a 256×256×64 acquisition matrix, LEUR collimation and 60 seconds per view. […] SPECT tumor-to-background ratios were computed using quantitative ROI techniques identical to the planar studies. […]

[2] = tested on: LLC tumors; assay: In vivo panning of T7 phage peptide library: phage recovered from irradiated LLC tumors; parameters: species or system mice
Method: (§1) GL261 murine glioma cells and Lewis lung carcinoma (LLC) cells were implanted into the hind limb of C57BL/6 mice (see Hallahan et al., 1995b; Hallahan et al., 1998; Hallahan & Virudachalam, 1999).
(§2) For in vivo panning, tumors were irradiated with 3 Gy and approximately 10^10 phage (prepared as described in Example 1) were administered by tail vein injection into each of the tumor bearing mice at 4 hours following irradiation. Tumors were recovered at one hour following injection and amplified in BL21 bacteria. Amplified phage were pooled and re-administered to a tumor-bearing mouse following tumor irradiation. The phage pool was sequentially administered to a total of 6 animals. As a control, wild type phage lacking synthetic peptide inserts were identically administered to a second experimental group of animals.
(§3) To determine the titer of phage binding in a tumor or in normal tissue, recovered phage were amplified in BL21 bacteria. Bacteria were plated and the number of plaques present was counted. To determine the total phage output per organ, the number of plaque forming units (PFU) on each plate was divided by the volume of phage plated and the weight of each organ. Normal variation was observed as a 2-fold difference in PFU. In the present Example, background binding within tumor blood vessels was approximately 10^4 phage. Phage that bound to the vasculature within irradiated tumors show enrichment in the tumor relative to other organs and enrichment in the irradiated tumor relative to the control phage without DNA insert.
(§4) Following six rounds of in vivo panning, fifty recombinant phage peptides that bound within irradiated tumors were randomly selected for further analysis. The nucleic acid sequence encoding recombinant phage was amplified by PCR using primers set forth as SEQ ID NOs: 20-21 (available from Novagen Brand, a unit of EMD Biosciences, Inc., Madison, Wis.). An individual phage suspension was used as template. Amplified peptides were sequenced using an ABI PRISM® 377 sequencer (Applied Biosystems of Foster City, Calif., United States of America).

[3] = tested on: GL261 tumors; assay: In vivo panning of T7 phage peptide library: phage recovered from irradiated GL261 tumors; parameters: species or system mice; settings: Experiment A, 3 Gy; for Phage Recovered from GL261 tumors: number of sequenced phage after six rounds; for Phage Recovered from GL261 tumors (Frequency): six rounds
Method: as §1, §2, §3, §4

[4] = tested on: B16F0 melanoma, lung carcinoma and glioma tumor models; assay: Binding of phage-encoded peptides in additional tumor models; format: in vivo; settings: phage encoding the peptide
Description: The binding properties of phage encoding HVGGSSV (SEQ ID NO: 1), […] (SEQ ID NO: 2), […] (SEQ ID NO: 3), and SVGSRV (SEQ ID NO: 4) were additionally characterized in a B16F0 melanoma model.

[5] = tested on: LLC and GL261 tumors; assay: Conserved motifs within phage peptides recovered by in vivo panning from both tumor models; parameters: species or system mice; settings: for Frequency of Recovery of conserved sequence: share of phage peptides recovered from irradiated tumors that contain the sequence
Method: as §2, §4
The amino acid sequences of all phage that were recovered from both tumors were studied in order to identify homologous sequences (Table 2). The most commonly recovered phage peptide had amino acid sequence HVGGSSV (SEQ ID NO: 1), and the second most common sequence was […] (SEQ ID NO: 2). The probability of recovering these peptide sequences from both tumor subtypes is 625/10^14 for each of the peptide sequences. The peptide sequence GSSV (SEQ ID NO: 9) was present in 58% of the phage recovered from tumors. Homology between peptides recovered from LLC and GL261 included 100% homology in […] (SEQ ID NO: 2) and 70% homology in RGSGSRV (SEQ ID NO.: 12). Of interest is a 6 amino acid homology spanning over 8 amino acids that include amino acids SXRGXGS (SEQ ID NO: 13), which was recovered from 28% of all phage in 2 tumor models (p<0.0001). The probability of having six identical amino acids by chance is 6^−24.

[6] = tested on: tumor vascular endothelium; settings: Geng et al., 2001; Lu et al., 2004; cited from earlier work
[7] = tested on: responding tumor blood vessels; assay: Biotinylated peptide binding in tumor blood vessels, FITC-avidin fluorescent microscopy; format: in vivo, mice
Method: The amino acid sequence RGXGSXV (SEQ ID NO: 18) was found in 41% of phage recovered from treated LLC tumors. To determine the pattern of RGDGSSV (SEQ ID NO: 10) peptide binding within responding tumor blood vessels, biotinylated peptide was administered by tail vein injection. Tumors were implanted into both hind limbs of mice. The right tumor was irradiated according to Example 2, and the left served as an untreated internal negative control. Biotinylated peptide was administered by tail vein injection immediately prior to tumor irradiation.

[8] = tested on: GL261 tumors; assay: TUNEL stain of intracranial GL261 glioblastoma tumors; format: in vivo, C57BL/6 mice
Method: The response of cancer cells within the intracranial glioblastoma tumor model, GL261, was also tested in mice. GL261 tumors were implanted into the brains of C57BL/6 mice. After tumor formation (seven days later), mice were treated with GLEEVEC®, 4 Gy or both GLEEVEC® and 4 Gy. Tumors were sectioned and assayed with TUNEL stain to identify apoptotic nuclei. […] The pharmacodynamic response (such as apoptosis) in tumors treated with GLEEVEC® correlated with tumor growth delay.

[9] = Experiment A, number of sequenced phage after six rounds, 3 Gy
[10] = Experiment B, number of sequenced phage

T1 sequence (P08514 32-887 limits assumed): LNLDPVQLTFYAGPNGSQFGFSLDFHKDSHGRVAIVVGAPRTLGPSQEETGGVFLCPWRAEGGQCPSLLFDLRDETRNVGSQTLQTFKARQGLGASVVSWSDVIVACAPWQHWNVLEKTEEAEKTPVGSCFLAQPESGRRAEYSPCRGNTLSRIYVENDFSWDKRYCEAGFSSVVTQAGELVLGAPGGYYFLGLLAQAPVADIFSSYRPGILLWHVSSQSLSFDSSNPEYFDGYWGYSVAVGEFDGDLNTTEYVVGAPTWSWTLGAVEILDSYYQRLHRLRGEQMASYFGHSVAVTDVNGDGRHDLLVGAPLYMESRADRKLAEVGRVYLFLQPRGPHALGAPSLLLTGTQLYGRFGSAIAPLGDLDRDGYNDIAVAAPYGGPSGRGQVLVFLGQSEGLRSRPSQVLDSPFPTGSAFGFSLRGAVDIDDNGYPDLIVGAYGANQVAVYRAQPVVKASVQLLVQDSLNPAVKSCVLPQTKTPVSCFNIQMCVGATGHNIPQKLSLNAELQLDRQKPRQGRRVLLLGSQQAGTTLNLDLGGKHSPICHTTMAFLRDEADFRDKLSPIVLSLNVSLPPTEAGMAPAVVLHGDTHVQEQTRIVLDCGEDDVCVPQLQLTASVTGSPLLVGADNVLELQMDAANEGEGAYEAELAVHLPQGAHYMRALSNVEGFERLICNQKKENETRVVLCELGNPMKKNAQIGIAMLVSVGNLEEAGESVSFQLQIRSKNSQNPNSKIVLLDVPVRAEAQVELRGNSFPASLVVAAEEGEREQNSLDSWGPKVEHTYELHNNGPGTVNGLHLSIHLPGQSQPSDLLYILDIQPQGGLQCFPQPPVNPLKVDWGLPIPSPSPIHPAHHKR
T1 sequence (P08514 891-1039 partner limits assumed): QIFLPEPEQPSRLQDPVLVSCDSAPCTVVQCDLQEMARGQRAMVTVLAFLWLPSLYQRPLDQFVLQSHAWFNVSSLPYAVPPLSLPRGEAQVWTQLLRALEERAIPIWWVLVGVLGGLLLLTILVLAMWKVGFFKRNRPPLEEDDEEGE
T1 sequence (P05106 27-788): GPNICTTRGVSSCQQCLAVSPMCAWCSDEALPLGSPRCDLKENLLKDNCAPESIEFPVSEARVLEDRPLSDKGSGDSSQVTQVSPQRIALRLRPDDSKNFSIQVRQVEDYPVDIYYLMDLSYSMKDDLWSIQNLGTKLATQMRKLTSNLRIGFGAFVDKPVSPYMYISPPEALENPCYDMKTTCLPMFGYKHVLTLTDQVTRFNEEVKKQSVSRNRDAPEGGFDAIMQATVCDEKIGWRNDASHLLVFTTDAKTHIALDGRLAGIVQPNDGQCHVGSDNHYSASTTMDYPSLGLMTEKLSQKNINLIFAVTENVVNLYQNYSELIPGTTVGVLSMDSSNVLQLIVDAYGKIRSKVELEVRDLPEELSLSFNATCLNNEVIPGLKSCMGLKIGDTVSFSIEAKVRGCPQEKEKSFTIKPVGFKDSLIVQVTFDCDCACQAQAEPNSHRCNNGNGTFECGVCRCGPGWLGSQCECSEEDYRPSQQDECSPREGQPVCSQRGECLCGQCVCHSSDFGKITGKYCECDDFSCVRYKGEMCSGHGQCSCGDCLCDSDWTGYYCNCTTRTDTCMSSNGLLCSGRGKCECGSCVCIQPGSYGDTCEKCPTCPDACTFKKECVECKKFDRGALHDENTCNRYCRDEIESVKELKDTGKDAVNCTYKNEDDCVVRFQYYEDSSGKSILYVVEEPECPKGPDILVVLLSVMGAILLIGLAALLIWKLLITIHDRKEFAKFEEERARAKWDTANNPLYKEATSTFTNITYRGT

With “Bibapcitide [^99mTc-labeled bibapcitide]” the Tumor binding ([1]; administered immediately prior to radiation, 10 Gy or more) was 4 of 4, the Localization to tumor ([1]; administered within one hour following radiation) was “failed to show localization” and the Specificity of binding ([1]; clinical study, general finding) was “non-specific binding”. The “Binding to responding tumors in dose de-escalation study” value ([1]; radiation dose reduced to 5 Gy) was “not sufficient” and the “Binding in second neoplasms not treated with radiation” value ([1]; two patients, non-responding tumors) was “not observed”.

For “SVRGSGSGV (Peptide that binds to LLC and/or GL261 tumors) [peptide isolated by in vivo panning of a phage library]”, the “Phage Recovered from LLC tumors” value [2, 9] was 7, the “Phage Recovered from LLC tumors (Frequency)” value ([2]; Experiment A, six rounds, 3 Gy) was “(28%)” and the “Phage Recovered from GL261 tumors” value [3] was 0. The “Phage Recovered from GL261 tumors (Frequency)” value [3] was “(0%)” and the “Tumor models within which the phage-encoded peptide bound” value [4] was “bound within glioma and melanoma”.

For “GSXV [conserved motif within peptides identified by in vivo panning]”, the “Frequency of Recovery of conserved sequence” value [5] was 80%.

For “SVVRDGSEV (Peptide that binds to LLC and/or GL261 tumors) [peptide isolated by in vivo panning of a phage library]”, the “Phage Recovered from LLC tumors (Frequency)” value ([2]; Experiment B) was “(21%)” and the “Phage Recovered from LLC tumors” value [2, 10] was 3.

In the case of “GSSV (conserved subsequence) [conserved motif within peptides identified by in vivo panning]”, the “Phage recovered from irradiated tumors” value ([5]; phage with peptide insert comprising the subsequence, no phage with wild type) is reported as 22-40 of 10^6 injected phage and the “Frequency of Recovery of conserved sequence” value [5] is reported as 58%.

For `Cc1cc(C)c(/C=C2\C(=O)Nc3ccccc32)[nH]1` [SU5416], the “Apoptosis within tumor vascular endothelium” value [6] is listed as “induced apoptosis within tumor vascular endothelium”.

With “RGDGSSV (also: biotin, site not given here) [tested as biotinylated peptide]” the “Frequency of Recovery of conserved sequence” value [5] was 28%, the “Peptide binding in irradiated (responding) tumor” value ([7]; biotinylated peptide by tail vein immediately prior to irradiation, right tumor irradiated) was “accumulation throughout the lumen of responding tumors” and the “Peptide binding in untreated control tumor” value ([7]; biotinylated peptide by tail vein, left tumor untreated internal control) was “near absence of binding”.

In the case of “NSV (conserved sequence) [N-terminal NSV, conserved N-terminal motif, N encoded by the vector]”, the “Frequency of Recovery of conserved sequence” value [5] is reported as 22%.

For “SGRKVGSGSSV (Peptide that binds to LLC and/or GL261 tumors) [peptide isolated by in vivo panning of a phage library]”, the “Phage Recovered from LLC tumors (Frequency)” value ([2]; Experiment B) was “(50%)” and the “Phage Recovered from LLC tumors” value [2, 10] was 7.

In the case of “RGXGSXV [conserved motif in phage recovered from treated LLC tumors]”, the “Frequency of sequence in phage recovered from treated LLC tumors” value ([2]; treated LLC tumors) is reported as 41%.

For `Cc1[nH]c(/C=C2\C(=O)Nc3ccccc32)c(C)c1CCC(=O)O` [SU6668], the “Apoptosis within tumor vascular endothelium” value [6] is listed as “induced apoptosis within tumor vascular endothelium”.

For “SRKQGGTEV (Peptide that binds to LLC and/or GL261 tumors) [peptide isolated by in vivo panning of a phage library]”, the “Phage Recovered from LLC tumors (Frequency)” value ([2]; Experiment B) was “(7%)” and the “Phage Recovered from LLC tumors” value [2, 10] was 1.

With “NXVG [N-terminal NXVG, conserved N-terminal motif, N encoded by the vector]” the “Frequency of Recovery of conserved sequence” value [5] was 34%.

For “SKEK (Peptide that binds to LLC and/or GL261 tumors) [peptide isolated by in vivo panning of a phage library]”, the “Phage Recovered from LLC tumors (Frequency)” value ([2]; Experiment B) was “(7%)” and the “Phage Recovered from LLC tumors” value [2, 10] was 1.

In the case of “SXRGXGS [conserved motif within peptides identified by in vivo panning]”, the “Frequency of Recovery of conserved sequence” value [5] is reported as 28%.

For “GSRV (conserved subsequence) [conserved motif within peptides identified by in vivo panning]”, the “Frequency of Recovery of conserved sequence” value [5] was 6%.

For `Cc1ccc(NC(=O)c2ccc(CN3CCN(C)CC3)cc2)cc1Nc1nccc(-c2cccnc2)n1` [GLEEVEC®], the “Glioma nuclei stained positive with TUNEL stain” value ([8]; TKI alone) was 5% and the “Apoptotic nuclei (TUNEL)” value ([8]; TKI followed by irradiation (4 Gy)) was 18%.

For “SVGSRV (Peptide that binds to LLC and/or GL261 tumors) [peptide isolated by in vivo panning of a phage library]”, the “Phage Recovered from LLC tumors” value [2, 9] was 1, the “Phage Recovered from LLC tumors (Frequency)” value ([2]; Experiment A, six rounds, 3 Gy) was “(4%)” and the “Phage Recovered from GL261 tumors” value [3] was 3. For the same compound, the “Phage Recovered from GL261 tumors (Frequency)” value [3] was “(12%)” and the “Tumor models within which the phage-encoded peptide bound” value [4] was “bound within lung carcinoma and glioma”.

For “NSXR [N-terminal NSXR, conserved N-terminal motif, N encoded by the vector]”, the “Frequency of Recovery of conserved sequence” value [5] was 39%.
